From article PMC9508125, “The evolutionary advantage of an aromatic clamp in plant family 3 glycoside exo-hydrolases” (Nature Communications, 2022) come the findings set out here.

Positions count from the first letter of the chain named.

Assay in all cases: Steady-state apparent kinetic constants with substrates
Common to all, as to assay type: biochemical

One assay deals with T1, HvExoI W434A mutant (Hordeum vulgare, UniProt Q9XEI3, W459A).
T1 sequence (Q9XEI3 26-630 W459A): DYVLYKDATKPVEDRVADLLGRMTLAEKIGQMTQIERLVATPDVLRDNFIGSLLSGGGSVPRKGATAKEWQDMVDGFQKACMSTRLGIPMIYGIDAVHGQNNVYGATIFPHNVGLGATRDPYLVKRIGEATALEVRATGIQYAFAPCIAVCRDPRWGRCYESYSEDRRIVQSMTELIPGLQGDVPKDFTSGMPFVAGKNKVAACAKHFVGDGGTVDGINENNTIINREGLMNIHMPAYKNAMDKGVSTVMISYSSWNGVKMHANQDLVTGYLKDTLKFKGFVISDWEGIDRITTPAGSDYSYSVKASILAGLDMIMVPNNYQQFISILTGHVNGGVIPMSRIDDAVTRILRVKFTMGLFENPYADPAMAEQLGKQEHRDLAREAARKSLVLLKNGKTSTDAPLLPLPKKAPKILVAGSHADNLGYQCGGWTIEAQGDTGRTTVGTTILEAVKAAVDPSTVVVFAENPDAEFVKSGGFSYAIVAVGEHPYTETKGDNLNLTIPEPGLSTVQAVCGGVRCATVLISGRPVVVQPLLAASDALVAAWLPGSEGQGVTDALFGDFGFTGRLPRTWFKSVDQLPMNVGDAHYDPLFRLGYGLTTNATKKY
As for the experimental part: (§1) Dependency of activities of WT and mutant HvExoI on pH (McIlvaine buffers in the pH range of 3.5–8.5 at 30 °C) and temperature (100 mM sodium acetate buffer, pH 5.25, temperature range 0–80 °C, 15 min incubations) were determined using 0.2% (w/v) 4NP-Glc[21],[59]. Relative rates of hydrolysis of β-linked poly-, oligosaccharides, and aryl-glucosides were determined using near-homogenous HvExoI at 50 pmoles. […] Kinetic parameters were calculated from the analyses of Michaelis-Menten plots with Grafit 7.0.3[62] and processed by a proportional weighted fit, using nonlinear regression. The relative rates of hydrolysis, kinetic, and inhibition data were rounded to one or two decimal points (Supplementary Tables 2–4).

The target in assay [1] is T2, HvExoI W286F/W434F mutant (Hordeum vulgare, UniProt Q9XEI3, W311F/W459F).
T2 sequence (Q9XEI3 26-630 W311F/W459F): T1 sequence (Q9XEI3 26-630 W459A) with W286F, A434F
The following applies: substance is the substrate. As to the method: as §1

The target in the next assay is T3, HvExoI W434F mutant (Hordeum vulgare, UniProt Q9XEI3, W459F).
T3 sequence (Q9XEI3 26-630 W459F): T1 sequence (Q9XEI3 26-630 W459A) with A434F
The following applies: substance is the substrate. As to the method:
as §1

The next assay has as its target T4, HvExoI W434Y mutant (Hordeum vulgare, UniProt Q9XEI3, W459Y).
T4 sequence (Q9XEI3 26-630 W459Y): T1 sequence (Q9XEI3 26-630 W459A) with A434Y
As to conditions: substance is the substrate. As for the experimental part: as §1

For `OC[C@H]1O[C@@H](O[C@H]2[C@H](O)[C@@H](CO)OC(O)[C@@H]2O)[C@H](O)[C@@H](O)[C@@H]1O` (stereo partly drawn) [Laminaribiose], on HvExoI W434A mutant, the “fold decrease of kcat compared to WT” value is “about 21 fold”.
Regarding laminarin, the values for the kcat (in assay [1]; at HvExoI W434F mutant; at HvExoI W434Y mutant) were 0.4 ± 0.1 s⁻¹, 8.0 ± 0.7 s⁻¹ and 0.8 ± 0.1 s⁻¹, respectively. Moreover, the results for the Km on HvExoI W434F mutant and on HvExoI W434Y mutant were 200 ± 10 µM and 100 ± 10 µM, respectively.
